Experimental data from patent publication US9890429B2, “Compositions, kits, and methods for the identification, assessment, prevention, and therapy of cancer” (Dana-Farber Cancer Institute, Inc., priority 2012, dated 2018).

Legend:
[1] = tested on: DLBCL cell lines; test: Proliferation of DLBCL cell lines after chemical CDK inhibition (alamarBlue assay); type: cell-based, human
Method: The identities of the DLBCL cell lines used in this study were confirmed via STR profiling (PowerPlex®1.2 system [Promega]) and the online verification services of the cell banks JCRB and DSMZ (available on the World Wide Web at cellbank.nibio.go.jp/cellbank_e.html and dsmz.de/STRanalysis). All DLBCL cell lines were cultured at 37° C. in 5% C02. SU-DHL-6, SU-DHL-7, DB and Toledo were propagated in RPMI; OCI-Ly3, OCI-Ly18 and OCI-Ly19 were grown in IMDM. HEK293T cells for lentiviral production were cultured in DMEM. All media were supplemented with 10 mM HEPES buffer, 2 mM L-glutamine, 50 U/mL penicillin, 50 U/mL streptomycin and 10% heat-inactivated fetal calf serum (Invitrogen). To ensure that cells were in logarithmic growth phase, cells were diluted to 200,000 cells/ml 48 h prior to any experiment.
The pan-CDK inhibitor, flavopiridol (Selleck Chemicals, Houston, USA), was suspended in DMSO (10 mM stock solution) and stored at −20° C. until use. Following treatment, proliferation of DLBCL cell lines was assessed with the alamarBlue assay (Invitrogen, Carlsbad, Calif.).

[2] = tested on: luciferized mCherry+ (Toledo, Ly4 or Ly1) DLBCL cells xenotransplanted in NSG mice; test: In vivo efficacy in DLBCL xenografts (bioluminescence, flow cytometry, immunohistochemistry); design: species or system mouse; conditions: multiple DLBCL xenograft models in NSG mice, 7.5 mg/kg daily IP vs vehicle
[3] = tested on: DLBCL cell lines; test: Apoptosis (Annexin V/7-AAD staining, subG1 peaks); type: cell-based, human; conditions: subG1 peaks and Annexin V/7-AAD staining, 72 hr treatment
Method: Cellular apoptosis was analyzed with an APC AnnexinV/7ADD Apoptosis Detection kit (BD Pharmingen). AnnexinV/7AAD plots and cell cycle graphics were generated using FlowJo software V7.6.1 for Windows (Tree Star).

[4] = tested on: DLBCL cell lines; test: Cell cycle analysis (Hoechst 33342, flow cytometry); type: cell-based, human; conditions: 72 hr treatment
Method: Cells were re-suspended in 1 ml of growth medium supplemented with 10 μg/ml Hoechst 33342 (Molecular Probes, Invitrogen) as final concentration. After 60 min at 37° C. in the dark. Analysis was performed on a FACSCAriallu cytometer (BD Biosciences) using the UV laser 350 nm with 20 mW. The cell cycle was plotted as histogram after excluding doublets.
Cell cycle analysis was performed at 72 h using Hoechst 33342 (Supplemental Methods) and a FACSCAriaIIu cytometer (BD Biosciences) with a UV laser at 350 nm with 20 mW.

[5] = tested on: RB1 phosphorylation (pS780 and pT821); conditions: DLBCL cell lines; 24 hr treatment
Method: For SDS-PAGE, total cell lysates were obtained using NP-40 lysis buffer (Tris-HCl 50 mM pH7.4, NaCl 150 mM, NaF 5 mM, EDTA 5 mM, 1% NP-40) supplemented with 1 mM activated Na3VO4 and complete proteinase inhibitor cocktail (Roche). […] After washing, membranes were probed against the indicated antigens following the manufacturer's recommendation. […] For chemoluminescence detection, enhanced ECL (GE Healthcare, Piscataway, N.J.) was used. After stripping, membranes were re-probed for GAPDH (1:3000, Santa Cruz Biotechnology) as loading control.

CN1CC[C@H](c2c(O)cc(O)c3c(=O)cc(-c4ccccc4Cl)oc23)[C@H](O)C1 [flavopiridol]
sensitivity of proliferation to lower doses ([1]; DHL7, DLBCL cell line with single copy RB1 loss, lower doses): less sensitive
cellular proliferation ([1]; DLBCL cell lines with decreased or absent p53 activity and CNAs of cell cycle components, nanomolar doses, 1-4 days): decreased the cellular proliferation
lymphoma infiltration of bone marrow and spleen [2]: significantly reduced
tumor growth ([2]; bioluminescence): significantly reduced tumor growth
apoptosis [3]: increased apoptosis
cell cycle (S phase, arrest) [4]: decreased S phase and induced cell cycle arrest
phosphorylation of RB1 at CDK4/6 and CDK2-specific sites (pS780 and pT821) [5]: decreased the phosphorylation of RB1
